Columns and labels:
[1] = test system: GP2D cells; assay: Cell proliferation assay (CellTiter-Glo), K-Ras G12D cells; type: cell-based; conditions: GP2D cells (K-Ras G12D); read-out: Inhibition of GP2D Cells (IC50)
Method in brief: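 CellTiter-Glo luminescence, taken roughly 5 days after dosing, measured growth of G12D-mutant GP2D cells in DMEM/2 mM glutamine/10% FBS. Compound dilution series (e.g., 9 points, 3-fold) added the day after plating. Four-parameter fitting gave IC50.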

[2] = molecular target: T1, KRAS protein (His-tagged GDP-loaded G12S 1-169) (Homo sapiens, UniProt P01116, G12S); assay: Covalent modification of KRAS protein, intact-protein LC-MS; type: binding; conditions: 24hrs at room temperature, KRAS protein ~2 µM
T1 construct: His-tagged GDP-loaded G12S 1-169
Procedure: Test compounds are prepared as 10 mM stock solutions in DMSO (Fisher cat#BP231-100). KRAS protein (His-tagged GDP-loaded wildtype 1-169, His-tagged GDP-loaded G12S 1-169 or His-tagged GDP-loaded G12D 1-169) is diluted to ~2 µM in appropriate buffer (e.g., a Hepes buffer at physiological conditions). For testing KRAS modification, compounds are diluted to 50X final test concentration in DMSO in 96-well storage plates. 2 µl of the diluted 50X compounds are added to appropriate wells in the PCR plate (Fisher cat#AB-0800). […] of the stock protein solution is added to each well of the 96-well PCR plate. Reactions are mixed carefully. The plate is sealed well with aluminum plate seal, and stored in drawer at room temperature for 24hrs. 5 µl of 2% formic acid (Fisher cat#A1 17-50) in MilliQ H2O is then added to each well followed by mixing with a pipette. The plate is then resealed with aluminum seal and stored until mass spectrometry analysis.
The extent of covalent modification of KRAS proteins was determined by liquid chromatography electrospray mass spectrometry analysis of the intact proteins on a Thermo Q-Exactive Plus mass spectrometer. 20 µl of sample was injected onto a bioZen 3.6 µm Intact C4 column (Phenomenex cat#00B-4767-AN) placed in a column oven set to 40°C and separated using a suitable LC gradient from -20% to ~60% solvent B. Solvent A was 0.1% formic acid and solvent B was 0.1% formic acid in acetonitrile. HESI source settings were set to 40, 5 and 1 for the sheath, auxiliary and sweep gas flow, respectively. The spray voltage was 4 kV, and the capillary temperature was 320°C. S-lens RF level was 50 and auxiliary gas heater temperature was set to 200°C. The mass spectrometry was acquired using a scan range from 650 to 1750 m/z using positive polarity at a mass resolution of 70,000, AGC target of 1e6 ions and maximum injection time of 250ms. The recorded protein mass spectrum was deconvoluted from the raw data file using Protein Deconvolution v4.0 (Thermo). The protein mass and adduct masses were exported with their peak intensities. The peak intensities for the unmodified and modified protein were used to calculate the percent covalent modification of the KRAS protein based on the following equation: %KRAS protein modification = ((KRAS-compound) / (KRAS) + (KRAS-Compound)) *100.

[3] = molecular target: T2, K-Ras G12S (Homo sapiens, UniProt P01116, G12S); assay: HTRF assay of the K-Ras / SOS1 interaction; type: biochemical; conditions: IC50 (against K-Ras G12D) to IC50 (against K-Ras G12S)
T2 construct: made in house; host or cells: E. coli (e.g., BL21 (DE3))
Method in brief: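 Compounds (duplicates, 10 µM to 0.01 µM) were incubated ≥~10 min with Eu-labelled GST-K-Ras G12S and XL665-labelled His-hSOS1 in HEPES pH 7.4 buffer containing NaCl, DTT, BSA and Igepal. Disruption measured as HTRF emission ratio 665/620 nm, fitted to IC50.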

Row | Structure (SMILES) | IC50 [1] [nM] | % G12S Modification at 24 hr. [2] | Ratio of IC50 KRAS G12D vs. IC50 KRAS G12S [3]
1 | Nc1nc2c(-c3c(Cl)cc4c(N5CCCC6(CCN(C(=O)n7cncn7)C6)C5)nc(OC[C@@]56CCCN5C[C@H](F)C6)nc4c3F)ccc(F)c2s1 (stereo partly drawn) [Compound A104, (7-(7-(2-amino-7-fluorobenzo[d]thiazol-4-yl)-6-chloro-8-fluoro-2-(((2R,7aS)-2-fluorotetrahydro-1H-pyrrolizin-7a(5H)-yl)methoxy)quinazolin-4-yl)-2,7-diazaspiro[4.5]decan-2-yl)(1H-1,2,4-triazol-1-yl)methanone] | 1000 to 10000 | ++ (++ indicates between about 1%- 20% labelling) | A (A: indicates that the ratio of IC50 against KrasG12D vs. IC50 against KrasG12S is 1-fold or greater)
2 | C#Cc1c(F)ccc2cccc(-c3ccc4c(N5CCN(C(=O)n6cncn6)CC(F)(F)C5)nc(OC[C@@]56CCCN5C[C@H](F)C6)nc4c3F)c12 [Compound A107, (4-(7-(8-ethynyl-7-fluoronaphthalen-1-yl)-8-fluoro-2-(((2R,7aS)-2-fluorotetrahydro-1H-pyrrolizin-7 a(5H)-yl)methoxy)quinazolin-4-yl)-6,6-difluoro-1 ,4-diazepan-1-yl)(1H-1,2,4-triazol-1-yl)methanone] | 1000 to 10000 | ++ (++ indicates between about 1%- 20% labelling) | A (A: indicates that the ratio of IC50 against KrasG12D vs. IC50 against KrasG12S is 1-fold or greater)
3 | N#Cc1cnn(C(=O)N2CCN(c3nc(OC[C@@]45CCCN4C[C@H](F)C5)nc4c(F)c(-c5ccc(F)c6sc(N)nc56)c(Cl)cc34)CC(F)(F)C2)c1 [Compound A126, 1-(4-(7-(2-amino-7-fluorobenzo[d]thiazol-4-yl)-6-chloro-8-fluoro-2-(((2R,7aS)-2-fluorotetrahydro-1H-pyrrolizin-7a(5H)-yl)methoxy)quinazolin-4-yl)-6,6-difluoro-1,4-diazepane-1-carbonyl)-1Hpyrazole-4-carbonitrile] | 1000 to 10000 | +++ (+++ indicates greater than 20% labelling) | A (A: indicates that the ratio of IC50 against KrasG12D vs. IC50 against KrasG12S is 1-fold or greater)
4 | Nc1nc2c(-c3c(Cl)cc4c(N5CC6CN(C(=O)n7cncn7)CC6C5)nc(OC[C@@]56CCCN5C[C@H](F)C6)nc4c3F)ccc(F)c2s1 (stereo partly drawn) [Compound A127, (5-(7-(2-amino-7-fluorobenzo[d]thiazol-4-yl)-6-chloro-8-fluoro-2-(((2R,7aS)-2-fluorotetrahydro-1H-pyrrolizin-7a(5H)-yl)methoxy)quinazolin-4-yl)hexahydropyrrolo[3,4-c]pyrrol-2(1H)-yl)(1H-1,2,4-triazol-1-yl)methanone] | 1000 to 10000 | ++ (++ indicates between about 1%- 20% labelling) | A (A: indicates that the ratio of IC50 against KrasG12D vs. IC50 against KrasG12S is 1-fold or greater)
5 | Nc1nc2c(-c3c(Cl)cc4c(N5CCC6(CN(C(=O)n7cncn7)CCO6)C5)nc(OC[C@@]56CCCN5C[C@H](F)C6)nc4c3F)ccc(F)c2s1 (stereo partly drawn) [Compound A202, (2-(7-(2-amino-7-fluorobenzo[d]thiazol-4-yl)-6-chloro-8-fluoro-2-(((2R,7aS)-2-fluorotetrahydro-1H-pyrrolizin-7a(5H)-yl)methoxy)quinazolm-4-yl)-6-oxa-2,9-diazaspiro[4.5]decan-9-yl)(1H-1,2,4-triazol-1-yl)methanone] | 1000 to 10000 | +++ (+++ indicates greater than 20% labelling) | 
6 | CC1(C)CN(c2nc(OC[C@@]34CCCN3C[C@H](F)C4)nc3c(F)c(-c4ccc(F)c5sc(N)nc45)c(Cl)cc23)CC2(CN(C(=O)n3cncn3)C2)O1 [Compound A212, (8-(7-(2-amino-7-fluorobenzo[d]thiazol-4-yl)-6-chloro-8-fluoro-2-(((2R,7aS)-2-fluorotetrahydro-1H-pyrrolizin-7a(5H)-yl)methoxy)quinazolin-4-yl)-6,6-dimethyl-5-oxa-2,8-diazaspiro[3.5]nonan-2-yl)(1H-1,2,4-triazol-1-yl)methanone] | 1000 to 10000 | +++ (+++ indicates greater than 20% labelling) | 
7 | Nc1nc2c(-c3c(Cl)cc4c(N5CCCCC6(CN(C(=O)n7cncn7)C6)C5)nc(OC[C@@]56CCCN5C[C@H](F)C6)nc4c3F)ccc(F)c2s1 [Compound A265, (6-(7-(2-amino-7-fluorobenzo[d]thiazol-4-yl)-6-chloro-8-fluoro-2-(((2R,7aS)-2-fluorotetrahydro-1H-pyrrolizin-7a(5H)-yl)methoxy)quinazolm-4-yl)-2,6-diazaspiro[3.6]decan-2-yl)(1H-1,2,4-triazol-1-yl)methanone] | ≤ 1000 | +++ (+++ indicates greater than 20% labelling) | 
8 | N#Cc1nccn1C(=O)N1CCN(c2nc(OC[C@@]34CCCN3C[C@H](F)C4)nc3c(F)c(-c4ccc(F)c5sc(N)nc45)c(Cl)cc23)CC1 [Compound A272, 1-(4-(7-(2-amino-7-fluorobenzo[d]thiazol-4-yl)-6-chloro-8-fluoro-2-(((2R,7aS)-2-fluorotetrahydro-1H-pyrrolizin-7a(5H)-yl)methoxy)quinazolin-4-yl)piperazine-1-carbonyl)-1H-imidazole-2-carbonitrile] | 1000 to 10000 | +++ (+++ indicates greater than 20% labelling) | 
9 | N#Cc1c(N)sc2c(F)ccc(-c3c(Cl)cc4c(N5CC6CCCN(C(=O)n7cncn7)C6C5)nc(OC[C@@]56CCCN5C[C@H](F)C6)nc4c3F)c12 (stereo partly drawn) [Compound A284, 4-(4-(1-(1H-1,2,4-triazole-1-carbonyl)octahydro-6H-pyrrolo[3,4-b]pyridin-6-yl)-6-chloro-8-fluoro-2-(((2R,7aS)-2-fluorotetrahydro-1H-pyrrolizin-7a(5H)-yl)methoxy)quinazolin-7-yl)-2-amino-7-fluorobenzo[b]thiophene-3-carbonitrile] |  | +++ (+++ indicates greater than 20% labelling) | A (A: indicates that the ratio of IC50 against KrasG12D vs. IC50 against KrasG12S is 1-fold or greater)
10 | N#Cc1cccn1C(=O)N1CCN(c2nc(OC[C@@]34CCCN3C[C@H](F)C4)nc3c(F)c(-c4ccc(F)c5sc(N)nc45)c(Cl)cc23)CC1 [Compound A287, 1-(4-(7-(2-amino-7-fluorobenzo[d]thiazol-4-yl)-6-chloro-8-fluoro-2-(((2R,7aS)-2-fluorotetrahydro-1H-pyrrolizin-7a(5H)-yl)methoxy)quinazolin-4-yl)piperazine-1-carbonyl)-1H-pyrrole-2-carbonitrile] | 1000 to 10000 | ++ (++ indicates between about 1%- 20% labelling) | 
11 | Cc1ncn(C(=O)N2CCCC(Oc3nc(OC[C@@]45CCCN4C[C@H](F)C5)nc4c(F)c(-c5ccc(F)c6sc(N)c(C#N)c56)c(Cl)cc34)C2)n1 (stereo partly drawn) [Compound A302, 2-amino-4-(6-chloro-8-fluoro-2-(((2R,7aS)-2-fluorotetrahydro-1H-pyrrolizin-7a(5H)-yl)methoxy)-4-((1-(3-methyl-1H-1,2,4-triazole-1-carbonyl)piperidin-3-yl)oxy)quinazolin-7-yl)-7-fluorobenzo[b]thiophene-3-carbonitrile] |  | ++ (++ indicates between about 1%- 20% labelling) | A (A: indicates that the ratio of IC50 against KrasG12D vs. IC50 against KrasG12S is 1-fold or greater)

Reference: patent EP4389751A1, “HETEROCYCLIC COMPOUNDS AND USES THEREOF” (Kumquat Biosciences Inc., priority 2021, dated 2024)
